8 compounds from article PMC6667231 (International journal of nutrition, 2019) can be followed below.

The first assay deals with T1, CDK4/Cyclin D1 (Homo sapiens, UniProt P11802). Kind of assay: cell-free […]-ATP kinase assay, P81 phosphocellulose plate. Particulars: read-out: 40 μM. The assay is classed as biochemical.
T1 sequence (P11802 2-303): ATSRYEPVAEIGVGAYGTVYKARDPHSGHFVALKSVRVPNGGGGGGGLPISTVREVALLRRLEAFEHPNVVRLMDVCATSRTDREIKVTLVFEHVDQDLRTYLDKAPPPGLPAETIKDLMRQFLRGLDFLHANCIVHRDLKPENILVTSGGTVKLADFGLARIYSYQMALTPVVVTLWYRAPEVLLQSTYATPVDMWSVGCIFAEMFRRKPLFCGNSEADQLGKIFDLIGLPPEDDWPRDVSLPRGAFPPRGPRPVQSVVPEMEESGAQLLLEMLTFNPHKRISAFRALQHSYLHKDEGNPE
T1 sequence (P24385 whole entry partner): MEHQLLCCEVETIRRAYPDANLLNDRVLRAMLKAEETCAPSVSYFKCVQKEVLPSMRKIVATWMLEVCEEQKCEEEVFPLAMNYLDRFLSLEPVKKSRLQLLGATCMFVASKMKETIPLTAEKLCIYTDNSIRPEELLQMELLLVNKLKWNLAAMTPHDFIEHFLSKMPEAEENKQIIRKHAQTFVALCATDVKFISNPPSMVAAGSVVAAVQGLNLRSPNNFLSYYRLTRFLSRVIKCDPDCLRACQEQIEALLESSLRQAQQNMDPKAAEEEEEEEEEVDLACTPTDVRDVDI
Consider `CC(C)=CCc1c(O)c(CC=C(C)C)c2oc3c(O)cccc3c(=O)c2c1O` [8-desoxygartanin], for which the activity at 40 µM worked out at 81.4 ± 6.38%.
On to `CC(C)=CCc1c(O)cc2oc3cc(O)c(O)c(CCC(C)(C)O)c3c(=O)c2c1O` [garcinone C], for which the activity at 40 µM stood at 65.7 ± 7.94%.
For the compound `CC(C)=CCc1c(O)c(CC=C(C)C)c2oc3c(O)ccc(O)c3c(=O)c2c1O` [gartanin], the activity at 40 µM was determined as 80.2 ± 10.2%.
Consider `COc1cc2oc3cc(O)c(OC)c(CC=C(C)C)c3c(=O)c2c(O)c1CC=C(C)C` [β-mangostin], for which the activity at 40 µM came to 55 ± 2.88%.

For a further assay, the target named is T1, CDK4/Cyclin D1. The description is as above. The assay is classed as biochemical.
Conditions: not given
As for `COc1c(O)cc2oc3cc4c(c(O)c3c(=O)c2c1CC=C(C)C)CCC(C)(C)O4` [3-isomangostin], the IC50 (usually the point on the concentration scale where inhibition reaches its midpoint) amounted to 15.6 µM.
The compound `COc1c(O)cc2oc3cc(O)c(CC=C(C)C)c(O)c3c(=O)c2c1CCC(C)(C)O` [garcinone D] gave a 50% inhibitory concentration (IC50) of 12.8 µM.
For `COc1c(O)cc2oc3cc(O)c(CC=C(C)C)c(O)c3c(=O)c2c1CC=C(C)C` [α-mangostin], the IC50 was 8.5 µM.
`CC(C)=CCc1c(O)cc2oc3cc(O)c(O)c(CC=C(C)C)c3c(=O)c2c1O` [γ-mangostin] came in with a 50% inhibitory concentration (IC50) of 6.2 µM. The IC50 values of the last two compounds are within 1.5-fold of each other.
